Where “and” joins values, the source holds several entries; their conditions need not be identical. Equal values may be shown once. Entries after “also recorded” stand apart in the source; their conditions may differ. Read-outs that look alike come from different tables or passages of the source.
Tests used:
[1] = tested on: adenocarcinoma-755 (Ca-755); assay: antitumor effect against adenocarcinoma-755 (Ca-755) implanted in mice; format: in vivo, mouse (BDF1)
Source text: (§1) Results of pharmacological studies for amino-glucopyranoside [I] according to the invention are described below. The test compounds which were used included methyl N-carbamyl-N'-(2-chloroethyl)-N'-nitroso-2-amino-2-deoxy-α-D-glucopyranoside and methyl N-carbamyl-N'-(2-chloroethyl)-N'-nitroso-6-amino-6-deoxy-α-D-glucopyranoside (hereinafter abbreviated to 2MCαG and 6MCαG, respectively). The control compounds which were employed were 1-(2-chloroethyl)-3-cyclohexyl-1-nitrosoourea (hereinafter abbreviated to CCNU), which had been widely applied as a control compound in such a pharmacological test of the streptozotocin derivatives, and GCNU referred to previously. The tumor systems which were used were leukemia L-1210, Nakahara-Fukuoka sarcoma, adenocarcinoma-755, ascites sarcoma 180 and Ehrlich ascites carcinoma (hereinafter abbreviated to L-1210, NFS, Ca-755, S-180A and EAC, respectively), and the antitumor activities were determined by a procedure of the National Cancer Center, Tokyo (A. Hoshi et al.: Farumashia 9, 464(1973)). The test animals which were used were ICR and BDF1 mice.
(§2) ^a Treatment was initiated 24 hr after implantation of tumor (day 1):
(§3) D1~5 = qd, day 1~5; D1 = day 1 only.
(§4) ^b T/C is expressed as the tumor weight ratio in solid tumors or tota
(§5) packed cell volume ratio in ascites tumors of treated/control.

[2] = tested on: solid as well as ascites tumor systems; assay: antitumor activity in the tumor systems (overall); format: in vivo, mouse; settings: mouse, in vivo
Source text: as §1

[3] = tested on: ascites sarcoma 180 (S-180A); assay: antitumor effect against ascites sarcoma 180 (S-180A) implanted in mice; format: in vivo, mouse (ICR)
Source text: as §1, §2, §3, §4, §5

[4] = tested on: Nakahara-Fukuoka sarcoma (NFS); assay: antitumor effect against Nakahara-Fukuoka sarcoma (NFS) implanted in mice; format: in vivo, mouse (ICR)
Source text: as §1, §2, §3, §4, §5

leukemia L-1210 = assay: increase in life span and survival of leukemia L-1210 implanted mice; format: in vivo, mouse (BDF1)
Source text: as §1, §2, §3
^d % increase in life span (mean survival time) over controls.
^e 60 days survivors/total in treated group.

[5] = acute toxicity (LD50) in mice; format: in vivo, mouse (ICR); settings: mouse, in vivo, ICR mice
[6] = peripheral white blood cell counts (bone marrow toxicity) and survival in normal male ICR mice; format: in vivo, mouse (ICR)
Experimental: Such peripheral white blood cell counts were performed as follows: Normal male ICR mice were used in groups of tens and the test compounds for treatment were made into their respective solutions. 2MCαG and 6MCαG were dissolved in physiological saline solutions, while CCNU and GCNU were suspended in 0.5% CMC aqueous solution and 50% PEG aqueous solution, respectively. A single administration at volume of 1 ml per 100 g body weight of animal (0.1 ml/10 g) was given intraperitoneally, and the peripheral white blood cell counts were performed 3, 8 and 15 days after administration of the test compounds.

[7] = tested on: Ehrlich ascites carcinoma (EAC); assay: antitumor effect against Ehrlich ascites carcinoma (EAC) implanted in mice; format: in vivo, mouse (ICR)
Source text: as §1, §2, §3, §4, §5

[8] = blood sugar level / diabetogenic activity; format: in vivo, rat (male Wister)
bacteria = assay: antibacterial activity, broth dilution method
[9] = cited from earlier work
[10] = cited from earlier work; remark: listed apart in the source
tumor = settings: in vivo; cited from earlier work
[11] = 3.2 mg/kg/day ip D1~5, BDF1 mice
[12] = 6.3 mg/kg/day ip D1~5, BDF1 mice
[13] = 15.0 mg/kg/day ip D1~5, BDF1 mice
[14] = 3.2 mg/kg/day ip D1~5, ICR mice
[15] = 3.2 mg/kg/day ip, 5 successive days
[16] = 12.5 mg/kg/day ip D1~5, ICR mice
[17] = 6.3 mg/kg/day ip D1~5, ICR mice
[18] = 15.0 mg/kg/day ip D1~5, ICR mice
[19] = 20.0 mg/kg/day ip D1~5, ICR mice
[20] = 3.2 mg/kg/day ip D1~5, listed as 2MCaαG

## CO[C@H]1O[C@H](CO)[C@@H](O)[C@H](O)[C@H]1NC(=O)N(CCCl)N=O [Example 2MCαG, methyl N-carbamyl-N'-(2-chloroethyl)-N'-nitroso-2-amino-2-deoxy-α-D-glucopyranoside]
[1]; [11]
  Activity: ++ (50~21% = ++)
  T/C: 22.4%
[1]; [12]
  Activity: +++ (20~0% = +++)
  T/C: 9.6%
[1]; 12.5 mg/kg/day ip D1~5, BDF1 mice
  T/C: 3.3%
[1]; [13]
  Activity: Toxic
  T/C: 0.3%
  died/used: 6/6
[1]; ip, 5 successive days
  antitumor effect compared with CCNU: more effective than CCNU
[2]
  antitumor activity: activity against solid as well as ascites tumor systems
[3]; [14]
  Activity: +++ (10~0% 10~0% = +++)
  T/C: 0%
[3]; [15]
  accumulation of ascites tumor cells: no accumulation of ascites tumor cells was observable
[3]; [16]
  T/C: 0%
[4]; [14]
  Activity: - (100~71% = -)
  T/C: 86.1%
[4]; [17]
  Activity: + (70~51% = +)
  T/C: 55.2%
[4]; [16]
  T/C: 44.3%
[4]; [18]
  Activity: ++ (50~21% = ++)
  T/C: 29.2%
[4]; [19]
  Activity: Toxic
  died/used: 6/6
[4]; ip, 5 successive days
  antitumor effect compared with CCNU: more effective than CCNU
Leukemia L-1210; 1.0 mg/kg/day ip D1~5
  ILS: 48%
  Survivors (60 days survivors/total): 0/6
Leukemia L-1210; 2.0 mg/kg/day ip D1~5
  ILS: > 249%
  Survivors (60 days survivors/total): 1/6
Leukemia L-1210; 2.0 mg/kg/day po D1~5
  ILS: > 143%
  Survivors (60 days survivors/total): 1/6
Leukemia L-1210; 3.2 mg/kg/day ip D1~5
  ILS: 394%
  Survivors (60 days survivors/total): 3 out of 6
Leukemia L-1210; [20]
  ILS: > 394%
  Survivors (60 days survivors/total): 3/6
Leukemia L-1210; 3.2 mg/kg/day po D1~5
  ILS: > 141%
  Survivors (60 days survivors/total): 1/6
Leukemia L-1210; 4.0 mg/kg/day ip D1~5
  ILS: > 349%
  Survivors (60 days survivors/total): 2/6
Leukemia L-1210; 6.3 mg/kg ip D1 only
  ILS: 128%
  Survivors (60 days survivors/total): 0/6
Leukemia L-1210; 6.3 mg/kg/day ip D1~5
  ILS: > 198%
  Survivors (60 days survivors/total): 1/6
Leukemia L-1210; 6.3 mg/kg/day po D1~5
  ILS: 343% and > 343%
  Survivors (60 days survivors/total): 2 out of 6 and 2/6
Leukemia L-1210; 8.0 mg/kg ip D1 only
  ILS: > 432%
  Survivors (60 days survivors/total): 3/6
Leukemia L-1210; 10.0 mg/kg ip D1 only
  ILS: > 717%
  Survivors (60 days survivors/total): 6/6
Leukemia L-1210; 10.0 mg/kg/day ip D1~5
  ILS: > 190%
  Survivors (60 days survivors/total): 1/6
Leukemia L-1210; 12.5 mg/kg/day ip D1~5
  ILS: > 160%
  Survivors (60 days survivors/total): 1/6
Leukemia L-1210; 12.5 mg/kg/day po D1~5
  ILS: 211%
  Survivors (60 days survivors/total): 0/6
Leukemia L-1210; 20.0 mg/kg ip D1 only
  ILS: > 717%
  Survivors (60 days survivors/total): 6/6
Leukemia L-1210; 20.0 mg/kg/day ip D1~5
  ILS: 58%
  Survivors (60 days survivors/total): 0/6
Leukemia L-1210; 25.0 mg/kg ip D1 only
  ILS: > 539%
  Survivors (60 days survivors/total): > 4/6
Leukemia L-1210; ip
  single dose compared with five dose schedule: might be more effective than a five dose schedule
Leukemia L-1210; mouse, in vivo
  activity against L-1210 compared with CCNU and GCNU: more active against L-1210
Leukemia L-1210; single 10-20 mg/kg ip
  ILS: 717%
  animals survived: all 6 animals survived
[5]; 5 doses, qd
  LD50: 16 mg/kg
[5]; single dose
  LD50: 48 mg/kg
[6]; 10 mg/kg ip single
  Death rate (death/used): 0/10
[6]; 10 mg/kg ip single, day 3
  Average count of WBC: 74.0±4.6 x 10^2 WBC/mm^3
[6]; 10 mg/kg ip single, day 8
  Average count of WBC: 105.6±4.5 x 10^2 WBC/mm^3
[6]; 10 mg/kg ip single, day 15
  Average count of WBC: 131.8±5.4 x 10^2 WBC/mm^3
[6]; 20 mg/kg ip single
  Death rate (death/used): 2/10
[6]; 20 mg/kg ip single, day 3
  Average count of WBC: 46.3±9.5 x 10^2 WBC/mm^3
[6]; 20 mg/kg ip single, day 8
  Average count of WBC: 101.0±16.5 x 10^2 WBC/mm^3
[6]; 20 mg/kg ip single, day 15
  Average count of WBC: 129.4±20.1 x 10^2 WBC/mm^3
[6]; 40 mg/kg ip single
  Death rate (death/used): 10/10
[6]; 40 mg/kg ip single, day 3
  Average count of WBC: 30.8±2.8 x 10^2 WBC/mm^3
[6]; 60 mg/kg ip single
  Death rate (death/used): 10/10
[6]; 60 mg/kg ip single, day 3
  Average count of WBC: 35.4±2.9 x 10^2 WBC/mm^3
[6]; 80 mg/kg ip single
  Death rate (death/used): 10/10
[6]; 80 mg/kg ip single, day 3
  Average count of WBC: 32.0±3.8 x 10^2 WBC/mm^3
[6]; LD10 doses
  incidence of leukopenia: comparatively mild with rapid return to pretreatment levels
[6]; mouse, in vivo
  bone marrow toxicity: improved bone marrow toxicity
  bone marrow toxicity compared with CCNU: less toxic
  bone marrow toxicity compared with GCNU: equivalent values as GCNU
[7]; [14]
  Activity: +++ (10~0% 10~0% = +++)
  T/C: 0%
[7]; [15]
  accumulation of ascites tumor cells: no accumulation of ascites tumor cells was observable
[7]; [16]
  T/C: 0%
[8]; one-month administration, qd, day 1-30, male Wister rat, glucose oxidase method
  blood sugar level: neither elevation nor depression tendencies
[8]; rat, in vivo
  diabetogenic activity: free from diabetogenic
bacteria
  antibacterial activity: without any antibacterial activities; also recorded: free from diabetogenic and antibacterial activities

## CC(=O)OC[C@H]1OC(OC(C)=O)[C@H](NC(=O)N(CCCl)N=O)[C@@H](OC(C)=O)[C@@H]1OC(C)=O (stereo partly drawn) [GCNU, 3-(tetraacetylglucopyranos-2-yl)-1-(2-chloroethyl)-1-nitrosourea, reference compound]
[9]; test animals
  diabetogenic activity: nondiabetogenic activity
[6]; 10 mg/kg ip single
  Death rate (death/used): 0/10
[6]; 10 mg/kg ip single, day 3
  Average count of WBC: 83.1±4.5 x 10^2 WBC/mm^3
[6]; 10 mg/kg ip single, day 8
  Average count of WBC: 140.3±15.7 x 10^2 WBC/mm^3
[6]; 10 mg/kg ip single, day 15
  Average count of WBC: 116.0±10.0 x 10^2 WBC/mm^3
[6]; 20 mg/kg ip single
  Death rate (death/used): 6/10
[6]; 20 mg/kg ip single, day 3
  Average count of WBC: 60.4±3.6 x 10^2 WBC/mm^3
[6]; 20 mg/kg ip single, day 8
  Average count of WBC: 131.4±17.4 x 10^2 WBC/mm^3
[6]; 20 mg/kg ip single, day 15
  Average count of WBC: 106.0±9.0 x 10^2 WBC/mm^3
[6]; 40 mg/kg ip single
  Death rate (death/used): 10/10
[6]; 40 mg/kg ip single, day 3
  Average count of WBC: 33.2±3.3 x 10^2 WBC/mm^3
[6]; 60 mg/kg ip single
  Death rate (death/used): 10/10
[6]; 60 mg/kg ip single, day 3
  Average count of WBC: 26.5±3.5 x 10^2 WBC/mm^3
[10]; in vivo
  bone marrow toxicity: reduced bone marrow toxicity
[10]; single ip, 15 mg/kg
  leukopenia: without causing leukopenia

## CN(N=O)C(=O)N[C@H]1C(O)O[C@H](CO)[C@@H](O)[C@@H]1O (stereo partly drawn) [streptozotocin, N-carbamyl-N'-methyl-N'-nitroso-2-amino-2-deoxy-D-glucopyranose]
[9]; in vivo
  diabetogenic activity: diabetogenic
tumor
  antitumor activity: exhibits an antitumor activity

Source: patent US4057684A, “Alkyl amino-glucopyranoside derivative and process for producing the same” (priority 1975, dated 1977)
